Data as given in patent US12447154B2, “Use of pyrrolopyrimidine compound for treating hemophagocytic syndrome” (CHIA TAI TIANQING PHARMACEUTICAL GROUP CO., LTD., priority 2020, dated 2025).

Test system: patient diagnosed with hemophagocytic syndrome
Assay: Clinical protocol for hemophagocytic syndrome (patient cases)
Assay type: in vivo, human
Method: Example 1. Clinical Protocol for Hemophagocytic Syndrome
Method of administration: orally administered once before breakfast in the morning and once after 12 h, with 28 consecutive days of administration as one treatment cycle.
Drug: the compound of formula I in 5 mg or 20 mg tablets, the compound of formula I being shown as its stereoisomer, a compound of formula II
[drawing 5] 1.2. Inclusion Criteria • 1) Age ≥18 years; ECOG scoring: 0-3; an expected survival of more than 3 months; • 2) A patient unambiguously diagnosed as having a first occurrence or first recurrence of HLH according to the HLH-2004 criteria; • 3) Other medication for HLH, if any, has been interrupted for 2 weeks or more; it has been 4 weeks or more since major surgery, if any; • 4) Laboratory tests should meet the following: blood routine examination: hemoglobin (Hb)≥60 g/L; absolute neutrophil count (ANC)≥0.5×10^9/L; platelet (PLT)≥30×10^9/L; liver function: serum total bilirubin (TBIL)<171 μmol/L; renal function: serum creatinine (Cr)≤1.5×ULN; blood coagulation function: activated partial thromboplastin time (APTT) and international normalized ratio (INR)≤1.5×ULN; • 5) Female patients should agree to take contraceptive measures (such as intrauterine devices [IUD], contraceptives or condoms) during the study and for at least 6 months after the study; serum pregnancy test results should be negative within 7 days before the study, and the patients must not be breastfeeding; male subjects should agree to take contraceptive measures during the study and for at least 6 months after the study; • 6) Voluntary participation, written informed consent and good compliance. 1.3. Evaluation Method
The therapeutic effect was evaluated by referring to the criteria of “2018 HLH Chinese Expert Consensus”. During induction treatment, it was recommended to evaluate the therapeutic effect every 2 weeks.
1.4. Therapeutic Effects Case 1
A patient diagnosed with hemophagocytic syndrome was given 20 mg/dose of tablets of the compound of formula II according to the administration regimen described in 1.1. The blood was tested regularly for the plasma concentration. The indexes such as blood routine examination results, biochemical profile and blood coagulation were dynamically monitored, and the patient's condition and vital signs were continuously dynamically monitored closely.
A patient diagnosed with hemophagocytic syndrome was given 15 mg/dose of tablets of the compound of formula II according to the administration regimen described in 1.1. The blood was tested regularly for the plasma concentration. The indexes such as blood routine examination results, biochemical profile and blood coagulation were dynamically monitored, and the patient's condition and vital signs were continuously dynamically monitored closely.

[1] = Case 2, 15 mg/dose tablets orally twice a day, after one administration cycle

N#CC[C@H](C1CCCC1)n1cc(-c2ncnc3[nH]ccc23)c(N)n1 [compound of formula II]
disease status (Case 1, patient, 20 mg/dose tablets orally twice a day (12 h interval), after one administration cycle (28 days)): remained stable
tolerability of the treatment (Case 1, patient, 20 mg/dose tablets orally twice a day, after one administration cycle (28 days)): tolerable
disease status (Case 2, patient, 15 mg/dose tablets orally twice a day (12 h interval), after one administration cycle (28 days)): remained stable
ferritin level decrease [1]: ≥ 25%
sCD25 level decrease (factor) [1]: 3/2
therapeutic effect evaluation (2018 HLH Chinese Expert Consensus criteria) [1]: partial response
tolerability of the treatment [1]: tolerable
